Data: article PMC3498381, “Isolated Toll-like Receptor Transmembrane Domains Are Capable of Oligomerization” (PLoS ONE, 2012)
No end group written: not given here.

Key:
[1] = system: homotypic interaction of the same TMD peptide; assay: Fluorescence self-quenching assay in C14-betaine micelles; format: binding, human; details: from molar fraction Kd compared with known ranges of TMD interactions
Description: An apparent dissociation constant (Kd) can be determined from self-quenching interactions by varying the amount of detergent present for a fixed peptide concentration. At low detergent:peptide ratios, the TMD peptides are driven to interact; however, gradually increasing the amount of detergent present at a fixed peptide concentration will cause the TMD interactions to dissociate. Then, at some critical detergent:peptide ratio, the interaction is completely dissociated and the fluorescence plateaus. […] Fitting the data results in apparent dissociation constants, Kd, in terms of a dimensionless detergent:peptide ratio (molar fraction) as this ratio, instead of the bulk concentration, is more relevant to TMD peptide association. For TLR1 the Kd was determined to be 645.63±49.08, for TLR6 the Kd was determined to be 883.57±86.92 and for TLR2 the Kd was determined to be 4475.5±637.9. […]
Figure 5 TLR1, TLR2, and TLR6 Homotypic Interactions by Fluorescence Self-Quenching. […] Homotypic interaction affinity was studied by changes of fluorescence intensity at different molar ratios of detergent to peptide. […] Increasing detergent competes off the TMD-TMD interactions and leads to an increase in fluorescence signal. […] Kd were determined using the Hill Equation.
Fluorescence self-quenching was used to directly probe the homotypic interactions of the synthetic peptides. […] Peptide concentrations of these samples were determined by UV-VIS and adjusted with the corresponding C14-Betaine only buffers such that all peptide concentrations were 1 µM. […] Samples were allowed to equilibrate in the 96-well plate at room temperature for 2 h before measurement using a Beckman-Coulter DTX 880 Multimode Detector plate reader. […] Each data point is blank corrected for the corresponding C14-Betaine only signal and are the average of 3 different readings. To scale the data from 0 to 1, the initial data point was averaged and set to be zero by subtracting from all further readings, and the data points that are in the plateau region were averaged and then all values were divided by this average to get a maximum of 1. […]

[2] = system: TLR1 TMD (functional ToxR chimera); assay: Dominant-negative (heterotypic) ToxR assay, TLR1 as dominant phenotype; format: cell-based; details: Miller units normalized to poly-Leu* = 1 and corrected for expression, lower = stronger interaction, N in table
Description: Next, we investigated heterotypic interactions of the TLRs. We specifically studied TLR2, TLR1, and TLR6 because they are cell surface expressed receptors known to form functional heterodimers. To determine the ability of these three cell surface TLRs to have heterotypic interactions within its family, we studied the ability of the TLR1, TLR2, and TLR6 TMDs to interact with the TLR receptors also expressed at the cell surface; namely, TLR1, TLR2, TLR4, TLR5, TLR6, and TLR10. We monitored these interactions using a dominant-negative ToxR assay (Fig. S1B) which works by having a second TMD expressed with a non-functional ToxR* intracellular domain. This ToxR* domain is incapable of binding the ctx promoter making any interactions with this second expressed TMD unable to produce the reporter enzyme. As such, any interaction between the functional ToxR and non-functional ToxR* TMDs will result in a reduction in signal output.
Figure 3 Cell- Surface Toll-like Recptor Heterotypic Interactions. (A) A dominant-negative ToxR assay was used to study heterotypic interactions of the cell-surface TLRs. Two TLR TMDs were encoded in the FHK12 E.coli reporter strain, one with a functional ToxR domain (dominant phenotype) and one with a nonfunctional ToxR* domain (negative phenotype). Interaction between the two different TMDs leads to a reduction in signal from that seen for homotypic interactions. The TMDs for GpA, TLR1, TLR2, and TLR6 were used with the functional ToxR domain while TMDs for poly-Leucine, TMD5, integrin αIIb, TLR1, TLR2, TLR4, TLR5, TLR6, and TLR10 were used with the nonfunctional ToxR* domain. Interactions were most prominent for the TLRs known to have heterotypic interactions – TLR2-TLR1 and TLR2-TLR6. […] We also saw interaction with the same TMD further validating the homotypic interactions. […] Each dominant phenotype was done in 3 technical replicates with each negative phenotype and >6 measurements made for each replicate. Error bars depict the standard error of the mean (n- Tables S3, S5, S7, S9). Western blots staining for MBP were performed to monitor expression levels of the constructs with the upper band being functional ToxR chimeras and the lower band being nonfunctional ToxR* chimeras – (B) GpA, (C) TLR1, (D) TLR2, and (E) TLR6. Significant differences for the same dominant phenotype were determined by use of the Tukey-Kramer test.
For heterotypic interactions one plasmid containing a functional ToxR domain (200 ng) and a second plasmid containing a non-functional ToxR* domain (200 ng) were co-transformed into chemically competent FHK12 E. coli (400 µL) by incubating on ice for 30 min, heat shock at 42°C for 90 s, incubation on ice for 2 min, and addition of SOC media (1600 µL) followed by incubation with shaking for 1 h at 37°C. This transformation mixture (50 µL) was then used to spread LB-agar plates containing cholaramphenicol (30 µg/mL), kanamycin (33 µg/mL), and ampicillin (100 µg/mL) and grown overnight at 37°C. Single colonies were selected from the plates and grown in 5 mL LB media containing cholaramphenicol (30 µg/mL), kanamycin (33 µg/mL), ampicillin (100 µg/mL), and arabinose (0.0025%) overnight (16–20 h) with shaking at 37°C. Analysis of activity was monitored as described in homotypic ToxR assays. Western blotting was done in the same manner as the homotypic ToxR assay with one band appearing for the functional ToxR construct and a second band for the nonfunctional ToxR* construct. Data were normalized to poly-Leu* Miller Units and corrected for varying protein expression levels using ImageJ (NIH) as previously reported.

Substance	Classification of homotypic interaction strength [1]	Mean TLR1-TMD* heterotypic interaction (ToxR signal) [2]
TLR6*: TLR6 TMD chimera with nonfunctional ToxR* domain (negative phenotype) (GNRASITLLIVTIGATMLVLAVTVTSLCIYLGSLIN; also: fused to non-functional ToxR* (S87H) and maltose binding protein, ends not given here)	weak	0.3349
TLR1*: TLR1 TMD chimera with nonfunctional ToxR* domain (negative phenotype) (GNRASITLLIVTIVATMLVLAVTVTSLCSYLGSLIN; also: fused to non-functional ToxR* (S87H) and maltose binding protein, ends not given here)	weak	0.3722
TLR2*: TLR2 TMD chimera with nonfunctional ToxR* domain (negative phenotype) (GNRASALVSGMCCALFLLILLTGVLCGSLIN; cysteine pairing not given here; also: fused to non-functional ToxR* (S87H) and maltose binding protein, ends not given here)	moderately strong	0.3243
